According to the supplement of paper PMC11061612:

What was measured:
Assay in all cases: Bliss excess, mean over the matrix (fraction); higher = more synergy
[1] = system: NOMO-1 (Acute Myeloid Leukemia)
How it was run: (§1)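 After 24 hours at 37°C and 5% CO2 in 1536-well plates, cells in DMEM/F12 or RPMI plus 10% FBS received two-drug dose matrices for 72 hours. Viability came from CellTiter-Glo 2.0 luminescence and was scaled as inhibition, anchored at 0 by vehicle wells and at 1 by blank wells. Combination Emax is taken as the second-highest inhibition in the matrix, and Bliss excess as the observed combination effect less EA + EB − EA·EB, with EA and EB the single-agent effects.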

[2] = system: SK-UT-1 (Other Solid Carcinomas)
How it was run: as §1

[3] = system: HLE (Hepatocellular Carcinoma)
How it was run: as §1

CS1 (Chondrosarcoma) = system: CS1 (Chondrosarcoma)
How it was run: as §1

HCC38 (Breast Carcinoma) = system: HCC38 (Breast Carcinoma)
How it was run: as §1

[4] = system: DOK (Oral Cavity Carcinoma)
How it was run: as §1

[5] = system: JHH-6 (Hepatocellular Carcinoma)
How it was run: as §1

[6] = system: HCT-116 (Colorectal Carcinoma)
How it was run: as §1

MCF7 (Breast Carcinoma) = system: MCF7 (Breast Carcinoma)
How it was run: as §1

[7] = system: 647-V (Bladder Carcinoma)
How it was run: as §1

[8] = system: NCI-H1688 (Small Cell Lung Carcinoma)
How it was run: as §1

[9] = system: EKVX (Non-Small Cell Lung Carcinoma)
How it was run: as §1

[10] = system: HOP-92 (Non-Small Cell Lung Carcinoma)
How it was run: as §1

[11] = system: YT (Other Blood Carcinomas)
How it was run: as §1

[12] = system: HCC1143 (Breast Carcinoma)
How it was run: as §1

[13] = system: MES-SA (Other Solid Carcinomas)
How it was run: as §1

[14] = system: PA-TU-8902 (Pancreatic Carcinoma)
How it was run: as §1

[15] = system: SKN-3 (Head and Neck Carcinoma)
How it was run: as §1

[16] = system: SW948 (Colorectal Carcinoma)
How it was run: as §1

[17] = system: U-118-MG (Low Grade Glioma)
How it was run: as §1

Compound	Bliss excess [1]	Bliss excess [2]	Bliss excess [3]	Bliss excess (CS1 (Chondrosarcoma))	Bliss excess (HCC38 (Breast Carcinoma))	Bliss excess [4]	Bliss excess [5]	Bliss excess [6]	Bliss excess (MCF7 (Breast Carcinoma))	Bliss excess [7]	Bliss excess [8]	Bliss excess [9]	Bliss excess [10]	Bliss excess [11]	Bliss excess [12]	Bliss excess [13]	Bliss excess [14]	Bliss excess [15]	Bliss excess [16]	Bliss excess [17]
CC1(C)CCC(CN2CCN(c3ccc(C(=O)NS(=O)(=O)c4ccc(NCC5CCOCC5)c([N+](=O)[O-])c4)c(Oc4cnc5[nH]ccc5c4)c3)CC2)=C(c2ccc(Cl)cc2)C1 [Venetoclax] + C[C@@H](Nc1cc(F)cc(F)c1)c1cc(C(=O)N(C)C)cc2c(=O)cc(N3CCOCC3)oc12 [AZD8186] (first compound max 1 µM, 7x7, partner max 3 µM)	0.0654	-0.0141	-0.0364	-0.0923	-0.0075	-0.0548	-0.0135	-0.0421	-0.0499	-0.0019	-0.0385	0.0566	-0.0212	0.0317	-0.0141	-0.0299	-0.0453	-0.0192	-0.0518	-0.0383
CN(CCO)CC[C@H](CSc1ccccc1)Nc1ccc(S(=O)(=O)NC(=O)c2ccc(N3CCC([C@@H](O)c4ccccc4-c4ccc(Cl)cc4)CC3)cc2)cc1S(=O)(=O)C(F)(F)F [AZD4320] + Cc1cc2ncnn2cc1Nc1ncc2c(n1)n(C1CCOCC1)c(=O)n2C [AZD7648] (first compound max 1 µM, 7x7, partner max 10 µM)	0.0103	-0.0195	-0.0295	-0.02	-0.0694	-0.0178	-0.024	-0.0197	-0.0357	-0.0508	0.0024	-0.0398	-0.0034	0.0291	-0.0021	-0.0399	-0.0429	-0.0463	-0.0233	-0.0154
Cc1c2c(nn1C)CSCc1cc(n(C)n1)CSc1cc(c3ccccc3c1)OCCCc1c(C(=O)O)n(C)c3c-2c(Cl)ccc13 [AZD5991] + C1CN(CCC1(C(=O)N[C@@H](CCO)C2=CC=C(C=C2)Cl)N)C3=NC=NC4=C3C=CN4 [Capivasertib] (first compound max 1 µM, 7x7, partner max 3 µM)	0.0814	0.0297	0.0341	-0.0261	0.0062	-0.0113	-0.0163	-0.0275	0.0778	-0.0059	0.015	-0.015	-0.0294	-0.0466	0.0114	-0.0144	-0.041	-0.0285	0.0308	-0.0205
COc1cccc(OCCCN)c1-c1cc(Nc2cnc(C#N)cn2)n[nH]1 [Prexasertib] + O=C(c1cc(Cc2n[nH]c(=O)c3ccccc23)ccc1F)N1CCN(C(=O)C2CC2)CC1 [Olaparib] (first compound max 1 µM, 7x7, partner max 10 µM)	-0.027	-0.0422	-0.0458	-0.0635	-0.0641	-0.0269	0.0128	0.0121	-0.0236	0.0459	-0.0135	-0.0217	-0.0692	-0.0314	-0.18	-0.0561	-0.0783	-0.0113	-0.0118	-0.0445
CN(CCO)CC[C@H](CSc1ccccc1)Nc1ccc(S(=O)(=O)NC(=O)c2ccc(N3CCC([C@@H](O)c4ccccc4-c4ccc(Cl)cc4)CC3)cc2)cc1S(=O)(=O)C(F)(F)F [AZD4320] + C[C@@H](Nc1cc(F)cc(F)c1)c1cc(C(=O)N(C)C)cc2c(=O)cc(N3CCOCC3)oc12 [AZD8186] (first compound max 1 µM, 7x7, partner max 3 µM)	0.0515	0.002	-0.0428	-0.0411	-0.0028	-0.0195	-0.0164	0.0266	0.0057	0.0441	0.0259	-0.0127	0.0329	0.0327	0.0263	0.0139	-0.0139	0.0112	-0.101	0.0018
CC1(C)CCC(CN2CCN(c3ccc(C(=O)NS(=O)(=O)c4ccc(NCC5CCOCC5)c([N+](=O)[O-])c4)c(Oc4cnc5[nH]ccc5c4)c3)CC2)=C(c2ccc(Cl)cc2)C1 [Venetoclax] + COc1cc(Nc2ncc3c(n2)-c2ccc(Cl)cc2C(c2c(F)cccc2OC)=NC3)ccc1C(=O)O [Alisertib] (first compound max 1 µM, 7x7, partner max 10 µM)	0.0906	0.0971	0.0066	-0.0227	-0.0184	0.0114	-0.0311	-0.0043	0.0079	-0.0092	0.0566	-0.0457	0.082	0.1	0.0244	-0.0225	-0.0664	-0.0565	-0.0996	-0.013
CC1(C)CCC(CN2CCN(c3ccc(C(=O)NS(=O)(=O)c4ccc(NCC5CCOCC5)c([N+](=O)[O-])c4)c(Oc4cnc5[nH]ccc5c4)c3)CC2)=C(c2ccc(Cl)cc2)C1 [Venetoclax] + Cc1cc2ncnn2cc1Nc1ncc2c(n1)n(C1CCOCC1)c(=O)n2C [AZD7648] (first compound max 1 µM, 7x7, partner max 10 µM)	0.02	-0.0119	-0.024	-0.0949	-0.007	-0.0208	-0.0302	0.0048	-0.0267	0.0316	0.0457	-0.0788	-0.0194	-0.0667	0.0481	-0.0384	-0.0715	-0.0193	-0.0448	-0.0148
CN(CCO)CC[C@H](CSc1ccccc1)Nc1ccc(S(=O)(=O)NC(=O)c2ccc(N3CCC([C@@H](O)c4ccccc4-c4ccc(Cl)cc4)CC3)cc2)cc1S(=O)(=O)C(F)(F)F [AZD4320] + C=CCn1c(=O)c2cnc(Nc3ccc(N4CCN(C)CC4)cc3)nc2n1-c1cccc(C(C)(C)O)n1 [AZD1775] (first compound max 1 µM, partner max 1 µM)	0.0233	0.0431	0.0906	-0.0017	0.0723	-0.0273	-0.0095	-0.0294	-0.0008	0.0479	0.0959	-0.0382	0.101	-0.0156	-0.0111	-0.0017	-0.0357	-0.0056	0.0744	0.0108
Cc1cc2ncnn2cc1Nc1ncc2c(n1)n(C1CCOCC1)c(=O)n2C [AZD7648] + C=CCn1c(=O)c2cnc(Nc3ccc(N4CCN(C)CC4)cc3)nc2n1-c1cccc(C(C)(C)O)n1 [AZD1775] (first compound max 10 µM, partner max 1 µM)	0.0204	0.0203	-0.0273	0.0046	-0.0124	0.0331	0.011	0.008	0.0442	0.0132	-0.0094	0.0061	-0.0022	-0.124	-0.0183	-0.0182	0.0152	-0.0033	-0.047	-0.0041
COc1cccc(OCCCN)c1-c1cc(Nc2cnc(C#N)cn2)n[nH]1 [Prexasertib] + CN(C)CCCOc1ccc(-c2ccc3ncc4c(c3c2)n(C2CCOCC2)c(=O)n4C)cn1 [AZD0156] (first compound max 1 µM, 7x7, partner max 1 µM)	-0.0154	-0.0039	-0.0646	-0.0324	-0.0482	-0.0225	0.0349	-0.0194	0.149	-0.0525	0.016	-0.0039	0.0056	-0.0114	-0.0453	0.0641	0.0068	0.011	0.0294	0.041
COc1cccc(OCCCN)c1-c1cc(Nc2cnc(C#N)cn2)n[nH]1 [Prexasertib] + C=CCn1c(=O)c2cnc(Nc3ccc(N4CCN(C)CC4)cc3)nc2n1-c1cccc(C(C)(C)O)n1 [AZD1775] (first compound max 1 µM, partner max 1 µM)	0.0539	0.071	0.0125	0.0426	0.0246	0.108	0.0849	0.083	0.0197	0.233	0.186	-0.024	-0.0601	-0.0086	0.0271	0.078	0.0716	0.119	0.0608	0.0225
COc1cccc2c1C(=O)c1c(O)c3c(c(O)c1C2=O)C[C@@](O)(C(=O)CO)C[C@@H]3O[C@H]1C[C@H](N)[C@H](O)[C@H](C)O1 [Doxorubicin] + Cc1cc2ncnn2cc1Nc1ncc2c(n1)n(C1CCOCC1)c(=O)n2C [AZD7648] (first compound max 1 µM, 7x7, partner max 10 µM)	0.128	0.093	0.0309	0.0851	0.0206	0.0485	0.0476	0.0556	0.058	0.107	0.0172	0.0083	0.0271	0.0344	0.0202	0.0696	0.0081	0.0045	0.0438	0.0909
CC1(C)CCC(CN2CCN(c3ccc(C(=O)NS(=O)(=O)c4ccc(NCC5CCOCC5)c([N+](=O)[O-])c4)c(Oc4cnc5[nH]ccc5c4)c3)CC2)=C(c2ccc(Cl)cc2)C1 [Venetoclax] + C1CN(CCC1(C(=O)N[C@@H](CCO)C2=CC=C(C=C2)Cl)N)C3=NC=NC4=C3C=CN4 [Capivasertib] (first compound max 1 µM, 7x7, partner max 3 µM)	-0.0342	0.0153	-0.0132	-0.072	-0.0177	-0.0532	-0.0791	-0.0801	0.0076	-0.0247	-0.0065	-0.0306	-0.0245	0.0073	-0.0004	-0.0597	-0.0752	-0.033	-0.0718	-0.0494
COc1cccc(OCCCN)c1-c1cc(Nc2cnc(C#N)cn2)n[nH]1 [Prexasertib] + C[C@@H]1COCCN1C2=NC(=NC(=C2)C3(CC3)[S@](=N)(=O)C)C4=C5C=CNC5=NC=C4 [AZD6738] (first compound max 1 µM, 7x7, partner max 10 µM)	-0.0147	-0.0259	0	-0.0111	-0.0029	0.0689	0.0207	0.103	0.017	-0.0106	0.0117	-0.0018	-0.0039	-0.0631	-0.026	-0.0765	0.0229	-0.0347	0.0334	-0.0136
